Square brackets hold non-standard residues; d marks the D form. Peptide text beside a SMILES is read from it. PEG8 = NCCOCCOCCOCCOCCOCCOCCOCCOCCC(=O)O

For one data set, the system named is human IgG antibody. Briefly: SPR evaluation of antibody binding properties of ligand immobilized on CM5 sensor chip. Conditions: for dissociation rate Koff: SPR, human IgG antibody, 25° C., HEPES buffer, fitting with BIAevaluation4.1. The procedure:
The association rate Kon [nM/s] and the dissociation rate Koff [l/s ] of an antibody were calculated from the binding reaction curve, and also the dissociation constant Kd [nM] in the binding reaction of polypeptide 1 with a human IgG antibody was calculated.

Data set [1] deals with Bovine Serum Albumin (BSA) (Bos taurus, UniProt P02769). Briefly: SPR evaluation of selectivity (binding of BSA to immobilized carrier).
Sequence of Bovine Serum Albumin (BSA) (P02769 25-607): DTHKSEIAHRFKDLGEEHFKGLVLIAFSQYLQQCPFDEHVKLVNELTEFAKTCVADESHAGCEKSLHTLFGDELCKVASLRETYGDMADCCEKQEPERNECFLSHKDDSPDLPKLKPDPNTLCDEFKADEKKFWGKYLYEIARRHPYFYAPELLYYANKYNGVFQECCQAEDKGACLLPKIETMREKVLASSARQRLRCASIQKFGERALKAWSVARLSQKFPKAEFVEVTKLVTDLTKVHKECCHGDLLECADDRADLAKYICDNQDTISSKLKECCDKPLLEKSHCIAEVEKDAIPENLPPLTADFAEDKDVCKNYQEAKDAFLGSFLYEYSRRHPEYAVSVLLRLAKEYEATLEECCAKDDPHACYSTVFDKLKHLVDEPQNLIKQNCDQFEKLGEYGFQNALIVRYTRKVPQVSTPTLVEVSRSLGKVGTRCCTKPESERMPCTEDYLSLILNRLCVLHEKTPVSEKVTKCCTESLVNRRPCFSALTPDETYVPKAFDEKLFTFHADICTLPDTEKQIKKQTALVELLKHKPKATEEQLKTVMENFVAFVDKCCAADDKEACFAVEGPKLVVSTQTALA
Experimental: A commercially available CM5 (carboxymethyl dextran introduction type, manufactured by GE Healthcare) sensor chip was set on a surface plasmon resonance (SPR) apparatus Biacore (manufactured by GE Healthcare), HEPES buffer (20 mM HEPES-HCl, 150 mM NaCl, pH 7.4) for SPR was stabilized at a flow rate of 10 μL/min, and 70 μL of a mixed aqueous solution of 0.2 M 1-ethyl-3-(3-dimethylaminopropyl)carbodiimide (EDC, manufactured by Wako Pure Chemical Industries, Ltd.) and 0.04 M N-hydroxysuccinimide (NHS, manufactured by Wako Pure Chemical Industries, Ltd.) was added. Then, 500 μL of a sample solution of polypeptide 1 diluted to 100 μM with the above-mentioned HEPES buffer and treated with a 0.20 μm PTFE filter (manufactured by [sequence]) was supplied to a carrier sample, blocked by an ethanolamine solution, and washed with an aqueous sodium hydroxide solution, followed by immobilization to prepare an immobilized carrier.
1000 nM of Bovine Serum Albumin (BSA, manufactured by Sigma-Aldrich) was added to the immobilized carrier A prepared in the above (1) at 25° C. over 10 min, and the binding amount after 10 minutes in HEPES buffer was measured by SPR.
Data set [2] in a line: Evaluation of temporal stability (solution stored at 40° C. for one month, then antibody-binding amount by SPR). For orientation: Surface plasmon resonance follows binding to a sensor surface in real time, without labels.
Experimental: A solution of the synthesized polypeptide 1 was stored in a constant-temperature zone (40° C.) for one month, and then the ligand was immobilized as in the above (1).
The nature of data set [3]: Evaluation of alkali resistance (1N NaOH, then antibody-binding amount by SPR). It is filed as physicochemical.
Experimental: The synthesized polypeptide 1 was immersed in 1N NaOH at room temperature for 1 hour, and then the ligand was immobilized as in the above (1).

For Ac-EQQNAFYK-OH [Example 20], the “dissociation rate Koff” value with human IgG antibody was found to be 0.00014 s⁻¹.
For H-EQQNAFYEILH-OH [Example 3], the “dissociation rate Koff” value with human IgG antibody was 0.00017 s⁻¹.
With “Comparative Example 1: wild-type protein A (manufactured by Repligen Corporation) [reference compound]”, the “dissociation rate Koff” value with human IgG antibody is 0.00025 s⁻¹.
Regarding “H-QQNAFYEI-OH [Comparative Example 4, reference compound]”, the “selectivity (in words)” value in data set [1] was “poor”. In the data set on human IgG antibody, the “antibody binding properties (in words)” value is “poor” and the “dissociation rate Koff” value worked out at 0.00024 s⁻¹.
H-DAQQSAFY-OH [Example 17]: in the data set with human IgG antibody, the “dissociation rate Koff” value is 0.00013 s⁻¹.
Still for that read-out and setting: in the case of Ac-EQQNAFYEILHK-OH [Example 21] it was 0.00016 s⁻¹.
The same measure, in the same setting: in the case of `CC(=O)N[C@@H](CCC(=O)O)C(=O)N[C@@H](CCC(N)=O)C(=O)N[C@@H](CCC(N)=O)C(=O)N[C@@H](CC(N)=O)C(=O)N[C@@H](C)C(=O)N[C@@H](Cc1ccccc1)C(=O)N[C@@H](Cc1ccc(O)cc1)C(=O)NCCOCCOCCOCCOCCOCCOCCOCCOCCC(=O)N[C@@H](CCCCN)C(=O)NCCOCCOCCOCCOCCOCCOCCOCCOCCC(=O)N[C@@H](CCC(=O)O)C(=O)N[C@@H](CCC(N)=O)C(=O)N[C@@H](CCC(N)=O)C(=O)N[C@@H](CC(N)=O)C(=O)N[C@@H](C)C(=O)N[C@@H](Cc1ccccc1)C(=O)N[C@@H](Cc1ccc(O)cc1)C(=O)O` [Example 25, Ac-EQQNAFY-(peg)8-K-(peg)8-EQQNAFY] (Ac-EQQNAFY[PEG8]K[PEG8]EQQNAFY-OH) it was 0.00019 s⁻¹.
Take `NCCNc1nc(NCCc2ccc(O)cc2)nc(Nc2ccccc2)n1` [Comparative Example 3]: the “temporal stability (in words)” value in data set [2] is “sufficient”. The “selectivity (in words)” value in data set [1] is reported as “insufficient”. In the data set on human IgG antibody, the “antibody binding properties (in words)” value is “insufficient” and the “dissociation rate Koff” value was 0.00065 s⁻¹. Further, the “alkali resistance (in words)” value in data set [3] is listed as “sufficient”.
Take Ac-KKKEQQNAFYKKK-OH [Example 22]: in the data set on human IgG antibody, the “dissociation rate Koff” value came out at 0.00015 s⁻¹.
For the compound H-EQSAFY-OH [Example 15, EQSAFY], in the data set with human IgG antibody, the “dissociation rate Koff” value was determined as 0.00014 s⁻¹.
H-EQQNAFY-NH2 [Example 19, EQQNAFY-NH2]: in the data set on human IgG antibody, the “dissociation rate Koff” value is 0.00015 s⁻¹.
Still for that read-out and setting: then H-EGQNAFY-OH [Example 5, EGQNAFY], with 0.0002 s⁻¹; and `C[C@H](NC(=O)[C@H](CC(N)=O)NC(=O)[C@H](CCC(N)=O)NC(=O)[C@H](CCC(N)=O)NC(=O)[C@H](CCC(=O)O)NC(=O)CCOCCOCCOCCOCCOCCOCCOCCOCCN)C(=O)N[C@@H](Cc1ccccc1)C(=O)N[C@@H](Cc1ccc(O)cc1)C(=O)N[C@@H](CCC(=O)O)C(=O)O` [Example 24] (H-[PEG8]EQQNAFYE-OH), with 0.00013 s⁻¹; and H-DQQSAFY-OH [Example 12, DQQSAFY], with 0.00015 s⁻¹.
Same read-out and setting: then H-EQQSAFY-OH [Example 10, EQQSAFY], with 0.00015 s⁻¹; and H-EQQSAFYEILH-OH [Example 11], with 0.00018 s⁻¹; and H-EQNAFY-OH [Example 9, EQNAFY], with 0.00017 s⁻¹.
Same read-out and setting: in the case of H-KKKEQQNAFYKKK-OH [Example 6] it was 0.00015 s⁻¹; in that of H-DQQSAFYEILH-OH [Example 13], 0.00015 s⁻¹; in that of H-EAQQSAFY-OH [Example 14], 0.00014 s⁻¹.
Ac-KKKEQQNAFYEILHKKK-OH [Example 23]: in the data set on human IgG antibody, the “dissociation rate Koff” value came out at 0.00016 s⁻¹.
Same read-out and setting: then H-EQQNAFYGGGKGGGEQQNAFY-OH [Example 8], with 0.00015 s⁻¹; and H-KKKEQQNAFYEILHKKK-OH [Example 7], with 0.00016 s⁻¹; and H-EQQNAFY-OH [Example 1, EQQNAFY], with 0.00017 s⁻¹.
On to H-EAQQNAFY-OH [Example 16], for which the “dissociation rate Koff” value with human IgG antibody amounted to 0.00019 s⁻¹.
In the case of H-EQQNAFYEILHL-OH [Example 4], in the data set with human IgG antibody, the “dissociation rate Koff” value is 0.00013 s⁻¹.
As for H-DQSAFY-OH [Example 18, DQSAFY], the “dissociation rate Koff” value in the data set with human IgG antibody was found to be 0.00019 s⁻¹.
Turning to H-KEQQNAFY-OH [Example 2], the “dissociation rate Koff” value with human IgG antibody was found to be 0.00013 s⁻¹.
